≈ marks a conversion by molar mass, not a printed value.
Assays:
A-431 = experiment: Anticancer activity against human A431 cells after 72 hrs by MTT assay; details: A-431, 72 h
HepG2 = experiment: Anticancer activity against human HepG2 cells after 72 hrs by MTT assay; details: HepG2, 72 h
HL-60 = experiment: Anticancer activity against human HL60 cells after 48 hrs by MTT assay; details: HL-60, 48 h
K562 = experiment: Anticancer activity against human K562 cells after 48 hrs by MTT assay; details: K562, 48 h
SK-OV-3 = experiment: Anticancer activity against human SKOV3 cells after 72 hrs by MTT assay; details: SK-OV-3, 72 h
[1] = Lipophilicity, log P of the compound; format: physicochemical; details: octanol/water

SMILES | IC50 (A-431) [µg/mL] | IC50 (HepG2) [µg/mL] | IC50 (HL-60) [µg/mL] | IC50 (K562) [µg/mL] | IC50 (SK-OV-3) [µg/mL] | logP [1]
N#Cc1c(F)c(F)c2c(C(=O)c3ccccc3)c3n(c(=N)c2c1F)CCO3 | 0.3 (≈ 0.812 µM) | 0.1 (≈ 0.271 µM) | 0.008 (≈ 0.0217 µM) | 0.0002 (≈ 0.000542 µM) | 0.2 (≈ 0.542 µM) | 2.57
CC(=O)c1c2n(c(=N)c3c(Cl)c(C#N)c(Cl)c(Cl)c13)CCN2 | 308 (≈ 866 µM) | 503 (≈ 1410 µM) | 4.7 (≈ 13.2 µM) | 3.6 (≈ 10.1 µM) | 78.4 (≈ 220 µM) | 2.43
Cc1ccc(C(=O)c2c3n(c(=N)c4c(Cl)c(C#N)c(Cl)c(Cl)c24)CCCN3)cc1 | > 1000 | 277 (≈ 621 µM) | 58.2 (≈ 131 µM) | 9.3 (≈ 20.9 µM) | 826 (≈ 1850 µM) | 4.61
N#Cc1c(F)c(Cl)c2c(C(=O)c3ccc(Cl)cc3)c3n(c(=N)c2c1F)CCN3 | 5 (≈ 11.9 µM) | 12.4 (≈ 29.6 µM) | 0.3 (≈ 0.716 µM) | 1.4 (≈ 3.34 µM) | 34.9 (≈ 83.3 µM) | 4
N#Cc1c(F)c(F)c2c(C(=O)c3ccccc3)c3n(c(=N)c2c1F)CCN3 | 0.8 (≈ 2.17 µM) | 1.2 (≈ 3.26 µM) | 0.001 (≈ 0.00272 µM) | 0.08 (≈ 0.217 µM) | 0.2 (≈ 0.543 µM) | 2.63
COc1ccc(C(=O)c2c3n(c(=N)c4c(F)c(C#N)c(F)c(Cl)c24)CCCN3)cc1 | 2 (≈ 4.66 µM) | 0.8 (≈ 1.87 µM) | 0.5 (≈ 1.17 µM) | 0.07 (≈ 0.163 µM) | 26.8 (≈ 62.5 µM) | 3.34
N#Cc1c(F)c(Cl)c2c(C(=O)c3ccccc3)c3n(c(=N)c2c1F)CCO3 | 2.3 (≈ 5.96 µM) | 3.6 (≈ 9.33 µM) | 1.5 (≈ 3.89 µM) | 1.7 (≈ 4.41 µM) | 29.2 (≈ 75.7 µM) | 3.21
COc1ccc(C(=O)c2c3n(c(=N)c4c(Cl)c(C#N)c(Cl)c(Cl)c24)CCN3)cc1 | 2.1 (≈ 4.69 µM) | 11.3 (≈ 25.2 µM) | 0.3 (≈ 0.67 µM) | 0.7 (≈ 1.56 µM) | – | 4.02
Cc1ccc(C(=O)c2c3n(c(=N)c4c(F)c(C#N)c(F)c(Cl)c24)CCCN3)cc1 | 27.5 (≈ 66.6 µM) | 24.6 (≈ 59.6 µM) | 14.6 (≈ 35.4 µM) | 2.3 (≈ 5.57 µM) | 76.4 (≈ 185 µM) | 3.85
COc1ccc(C(=O)c2c3n(c(=N)c4c(F)c(C#N)c(F)c(F)c24)CCN3)cc1 | 7.5 (≈ 18.8 µM) | 0.9 (≈ 2.26 µM) | 0.5 (≈ 1.26 µM) | 0.4 (≈ 1 µM) | – | 2.62
N#Cc1c(F)c(F)c2c(C(=O)c3ccc(Cl)cc3)c3n(c(=N)c2c1F)CCN3 | 4.9 (≈ 12.2 µM) | 17.7 (≈ 43.9 µM) | 0.5 (≈ 1.24 µM) | 1 (≈ 2.48 µM) | 34.5 (≈ 85.7 µM) | 3.36
CCOC(=O)c1c2n(c(=N)c3c(F)c(C#N)c(F)c(Cl)c13)CCN2 | 2.2 (≈ 6.24 µM) | 1.5 (≈ 4.25 µM) | 0.003 (≈ 0.00851 µM) | 0.0008 (≈ 0.00227 µM) | 0.05 (≈ 0.142 µM) | 2.68
COc1ccc(C(=O)c2c3n(c(=N)c4c(F)c(C#N)c(F)c(Cl)c24)CCN3)cc1 | 1.9 (≈ 4.58 µM) | 1.2 (≈ 2.89 µM) | 0.2 (≈ 0.482 µM) | 0.3 (≈ 0.723 µM) | – | 3.26
CC(=O)c1c2n(c(=N)c3c(F)c(C#N)c(F)c(F)c13)CCN2 | 4.4 (≈ 14.4 µM) | 3.1 (≈ 10.1 µM) | 0.02 (≈ 0.0653 µM) | 0.1 (≈ 0.327 µM) | 0.02 (≈ 0.0653 µM) | 1.03
COc1ccc(C(=O)c2c3n(c(=N)c4c(Cl)c(C#N)c(Cl)c(Cl)c24)CCCN3)cc1 | 56.9 (≈ 123 µM) | 400 (≈ 866 µM) | 4.4 (≈ 9.53 µM) | 1.4 (≈ 3.03 µM) | 67.2 (≈ 146 µM) | 4.1
CC(=O)c1c2n(c(=N)c3c(F)c(C#N)c(F)c(Cl)c13)CCN2 | 20.4 (≈ 63.2 µM) | 6.4 (≈ 19.8 µM) | 0.9 (≈ 2.79 µM) | 0.4 (≈ 1.24 µM) | 6.2 (≈ 19.2 µM) | 1.67
COc1ccc(C(=O)c2c3n(c(=N)c4c(F)c(C#N)c(F)c(F)c24)CCO3)cc1 | 1.5 (≈ 3.76 µM) | 0.5 (≈ 1.25 µM) | 0.1 (≈ 0.25 µM) | 1.8 (≈ 4.51 µM) | 0.2 (≈ 0.501 µM) | 2.57
N#Cc1c(F)c(Cl)c2c(C(=O)c3ccc(Cl)cc3)c3n(c(=N)c2c1F)CCCN3 | 2.8 (≈ 6.46 µM) | 2.1 (≈ 4.85 µM) | 0.2 (≈ 0.462 µM) | 0.3 (≈ 0.692 µM) | 17.1 (≈ 39.5 µM) | 4.08
N#Cc1c(Cl)c(Cl)c2c(C(=O)c3ccc(Cl)cc3)c3n(c(=N)c2c1Cl)CCCN3 | 8 (≈ 17.2 µM) | 30 (≈ 64.4 µM) | 4.4 (≈ 9.44 µM) | 1.2 (≈ 2.57 µM) | 52.2 (≈ 112 µM) | 4.84
N#Cc1c(F)c(Cl)c2c(C(=O)c3ccccc3)c3n(c(=N)c2c1F)CCN3 | 4.8 (≈ 12.5 µM) | 0.3 (≈ 0.78 µM) | 0.1 (≈ 0.26 µM) | 0.4 (≈ 1.04 µM) | 5.8 (≈ 15.1 µM) | 3.27
CCOC(=O)c1c2n(c(=N)c3c(Cl)c(C#N)c(Cl)c(Cl)c13)CCN2 | 40.6 (≈ 105 µM) | 38.2 (≈ 99.1 µM) | 1.7 (≈ 4.41 µM) | 1.6 (≈ 4.15 µM) | 50.1 (≈ 130 µM) | 3.44
COc1ccc(C(=O)c2c3n(c(=N)c4c(Cl)c(C#N)c(Cl)c(Cl)c24)CCO3)cc1 | 11 (≈ 24.5 µM) | 2.7 (≈ 6.02 µM) | 24.2 (≈ 53.9 µM) | 0.8 (≈ 1.78 µM) | 32.2 (≈ 71.8 µM) | 3.39
N#Cc1c(Cl)c(Cl)c2c(C(=O)c3ccccc3)c3n(c(=N)c2c1Cl)CCN3 | 3.4 (≈ 8.14 µM) | 4.4 (≈ 10.5 µM) | 0.8 (≈ 1.92 µM) | 0.7 (≈ 1.68 µM) | 19.7 (≈ 47.2 µM) | 4.03
Cc1ccc(C(=O)c2c3n(c(=N)c4c(F)c(C#N)c(F)c(F)c24)CCCN3)cc1 | 2.1 (≈ 5.3 µM) | 2.4 (≈ 6.05 µM) | 4.7 (≈ 11.9 µM) | 0.7 (≈ 1.77 µM) | 33.9 (≈ 85.5 µM) | 3.21
